Source: the supplement of paper PMC10307832

Legend:
Assay in all cases: relative viability (nuclei count vs DMSO), 5 days (fraction); higher = more cells survive
Tivantinib + Tozasertib = compound: O=C1NC(=O)[C@@H](c2cn3c4c(cccc24)CCC3)[C@@H]1c1c[nH]c2ccccc12 [Tivantinib] + Cc1cc(Nc2cc(N3CCN(C)CC3)nc(Sc3ccc(NC(=O)C4CC4)cc3)n2)n[nH]1 [Tozasertib] (partner 0.1 µM)
Procedure, shortened: (§1)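 The day after seeding in 1536-well plates, lung cancer cell lines were treated by pin tool with a single drug, or with a fixed anchor-drug dose together with five library-drug doses (not always all listed) in √10 steps. After 5 days, a combined fix-and-stain solution (final 0.05% Triton X-100, 1% formaldehyde, 1 ug/ml Hoechst) was added. Nuclei counted on 4× images gave relative viability as treated counts over vehicle counts, reported as the median of duplicate plates.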

Tivantinib + Olaparib = compound: O=C1NC(=O)[C@@H](c2cn3c4c(cccc24)CCC3)[C@@H]1c1c[nH]c2ccccc12 [Tivantinib] + O=C(c1cc(Cc2n[nH]c(=O)c3ccccc23)ccc1F)N1CCN(C(=O)C2CC2)CC1 [Olaparib] (partner 8 µM)
Procedure, shortened: as §1

Tivantinib + Luminespib = compound: O=C1NC(=O)[C@@H](c2cn3c4c(cccc24)CCC3)[C@@H]1c1c[nH]c2ccccc12 [Tivantinib] + CCNC(=O)c1noc(-c2cc(C(C)C)c(O)cc2O)c1-c1ccc(CN2CCOCC2)cc1 [Luminespib] (partner 0.01 µM)
Procedure, shortened: as §1

Crenolanib + Vorinostat = compound: CC1(COc2ccc3c(c2)ncn3-c2ccc3cccc(N4CCC(N)CC4)c3n2)COC1 [Crenolanib] + O=C(CCCCCCC(=O)Nc1ccccc1)NO [Vorinostat] (partner 1 µM)
Procedure, shortened: as §1

Cell Line | relative viability (Tivantinib + Tozasertib; first compound 0.01 µM) | relative viability (Tivantinib + Tozasertib; first compound 0.03162 µM) | relative viability (Tivantinib + Tozasertib; first compound 0.1 µM) | relative viability (Tivantinib + Tozasertib; first compound 0.3162 µM) | relative viability (Tivantinib + Olaparib; first compound 0.01 µM) | relative viability (Tivantinib + Olaparib; first compound 0.03162 µM) | relative viability (Tivantinib + Olaparib; first compound 0.1 µM) | relative viability (Tivantinib + Olaparib; first compound 0.3162 µM) | relative viability (Tivantinib + Luminespib; first compound 0.01 µM) | relative viability (Tivantinib + Luminespib; first compound 0.03162 µM) | relative viability (Tivantinib + Luminespib; first compound 0.1 µM) | relative viability (Tivantinib + Luminespib; first compound 0.3162 µM) | relative viability (Crenolanib + Vorinostat; first compound 0.01 µM) | relative viability (Crenolanib + Vorinostat; first compound 0.1 µM) | relative viability (Crenolanib + Vorinostat; first compound 0.3162 µM) | relative viability (Crenolanib + Vorinostat; first compound 1 µM) | relative viability (Crenolanib + Vorinostat; first compound 0.03162 µM)
SW 900 | 0.642 | 0.577 | 0.636 | 0.576 | 0.939 | 1.03 | 0.809 | 0.742 | 0.191 | 0.177 | 0.162 | 0.145 | 0.548 | 0.428 | 0.574 | 0.435 | –
NCI-H3122 | 0.409 | 0.36 | 0.508 | 0.146 | 0.643 | 0.608 | 0.584 | 0.665 | 0.0944 | 0.103 | 0.0763 | 0.0784 | 0.976 | 0.765 | 1.14 | 0.796 | 0.938
HCC-827 | 0.388 | 0.402 | 0.48 | 0.312 | 0.661 | 0.681 | 0.673 | – | 0.472 | 0.661 | 0.699 | 0.378 | 0.985 | 0.809 | 0.7 | 0.753 | 0.837
LU99A | 0.261 | 0.276 | 0.266 | 0.291 | 0.272 | 0.267 | 0.251 | 0.254 | 0.277 | 0.26 | 0.235 | 0.208 | 0.58 | 0.43 | 0.501 | 0.455 | 0.576
LC-2-ad | 0.455 | 0.409 | 0.393 | 0.313 | 0.684 | 0.685 | 0.692 | 0.706 | 0.995 | 1.17 | 0.94 | 0.906 | 0.726 | 0.67 | 0.736 | 0.679 | 0.674
NCI-H322M | 0.483 | 0.458 | 0.502 | – | 0.718 | 0.754 | 0.777 | – | 0.977 | 0.874 | 0.737 | – | 0.872 | 0.872 | 0.808 | 0.784 | 0.789
HOP-62 | 0.383 | 0.352 | 0.385 | 0.377 | 0.463 | 0.451 | 0.329 | 0.477 | 0.889 | 0.892 | 0.917 | 0.89 | 0.653 | 0.635 | 0.829 | 0.552 | 0.542
SW 1573 | 0.23 | 0.262 | 0.177 | 0.127 | 0.532 | 0.481 | 0.544 | 0.488 | 0.263 | 0.525 | 0.17 | 0.271 | 0.961 | 0.995 | 0.929 | 0.606 | 0.624
NCI-H1993 | 0.541 | 0.595 | 0.543 | 0.51 | 1.22 | 1.04 | 1.05 | 0.589 | 1 | 0.822 | 0.421 | 0.56 | 0.956 | 0.777 | 0.797 | 0.729 | 0.728
NCI-H1734 | 0.273 | 0.278 | 0.252 | 0.247 | 0.61 | 0.615 | 0.577 | 0.495 | 0.206 | 0.198 | 0.0957 | 0.191 | 0.852 | 0.786 | 0.946 | 0.757 | 0.801
NCI-H1666 | 0.624 | 0.612 | 0.606 | 0.526 | 0.734 | 0.736 | 0.696 | 0.731 | 0.963 | 1.05 | 0.944 | 0.939 | 1.1 | 0.991 | 1.09 | 1.06 | 1.01
NCI-H460 | 0.405 | 0.31 | 0.368 | 0.299 | 0.412 | 0.429 | 0.399 | 0.39 | 0.0321 | 0.0359 | 0.0227 | 0.0374 | 0.743 | 0.688 | 1.16 | 0.768 | 0.701
LCLC-97TM1 | 0.25 | 0.218 | 0.25 | 0.218 | 0.39 | 0.414 | 0.455 | 0.407 | 0.773 | 0.788 | 0.673 | 0.764 | 0.822 | 0.792 | 0.832 | 0.536 | 0.83
LOU-NH91 | 0.663 | 0.675 | 0.593 | 0.537 | 0.861 | 0.888 | 0.9 | 0.715 | 0.373 | 0.369 | 0.309 | 0.367 | 0.996 | 0.878 | 0.886 | 0.867 | 0.913
NCI-H838 | 0.26 | 0.273 | 0.262 | 0.322 | 0.775 | 0.77 | 0.71 | 0.816 | 0.276 | 0.308 | 0.302 | 0.335 | 0.747 | 0.698 | 0.722 | 0.738 | 0.74
NCI-H1437 | 0.426 | 0.386 | 0.391 | 0.422 | 0.605 | 0.629 | 0.607 | 0.588 | 1.13 | 1.15 | 1.1 | 1.06 | 0.843 | 0.781 | 0.857 | 0.628 | 0.868
NCI-H2087 | 0.311 | 0.257 | 0.235 | 0.3 | 0.56 | 0.628 | 0.602 | 0.658 | 0.165 | 0.182 | 0.139 | 0.137 | 0.657 | 0.968 | 0.664 | 0.877 | 0.779
